In US10244762B1, “Solid aquatic organism control composition and method of use” (priority 2016, dated 2019):

Test system: Microcystis aeruginosa
Assay: M. aeruginosa cultures, peroxide held constant with Fe-EDTA and citric acid
Assay type: cell-based
Details: 1.75 ppm H2O2; for In vivo chl a concentrations (± SD) of M. aeruginosa cultures: initial 3.83 ± 0.05 μg/L
Experimental: Tests were conducted similar to Example 1 to show the efficacy of compositions made according to the present disclosure against Microcystis aeruginosa. M. aeruginosa is a species of fresh water bacteria that can form harmful algal blooms.
Peroxide concentrations were held constant at either 0.5 ppm, 1.5 ppm, 1.75 ppm, or 2.0 ppm. Fe-EDTA was applied at 0.3%, 0.6%, or 0.9% based on the original dry formulation. Citric acid was added at 1% based on the original dry formulation.
For instance, Tables 5 and 6 below illustrate the differences when peroxide was applied at 1.75 ppm.

In the case of `OO` [H2O2, hydrogen peroxide], the “In vivo chl a concentrations (± SD) of M. aeruginosa cultures” value (from here on “In vivo chl a concentrations (± SD)”) (day 1) is reported as 2.87 ± 0.74 µg/L, the “In vivo chl a concentrations (± SD)” value (day 2) is reported as 1.72 ± 0.66 µg/L and the “In vivo chl a concentrations (± SD)” value (day 3) is reported as 1.31 ± 0.64 µg/L. The “In vivo chl a concentrations (± SD)” value (day 4) was 1.32 ± 0.63 µg/L and the “Cell density of M. aeruginosa cultures (± SD)” value (day 4, initial cell density 2.2E+06 ± 7.2E+04 cells/mL) was 8.0E+04 cells/mL.
